Reference: article PMC7866232, “New Substituted 5-Benzylideno-2-Adamantylthiazol[3,2-b][1,2,4]Triazol-6(5H)ones as Possible Anti-Inflammatory Agents” (Molecules, 2021)
Where two headings read alike, the source gives them in different places.

What was measured:
[1] = test system: carrageenin-induced mouse paw edema; experiment: Carrageenin-induced mouse paw edema (CPE), in vivo anti-inflammatory activity; conditions: for inhibition in vivo at 10 µmol/kg: Mus musculus, ip, mice, 0.01 mmol/kg body weight intraperitoneally, given simultaneously with carrageenin (2%, 0.05 mL); for increased anti-inflammatory activity compared to indomethacin: carrageenin paw edema, relative to indomethacin
Procedure: The in vivo anti-inflammatory effect of the tested compounds was assessed by using the functional model of carrageenin-induced mouse paw edema and is presented as the percentage of inhibition of induction of edema at the right hind paw (Table 1).
Edema was measured by weight increase of the right hind paw in comparison to the […] left paw.
Twenty-five thiazolo[3,2-b]1,2,4-triazole derivatives, previously synthesized were evaluated for their anti-inflammatory activity, in vivo using groups of 6–10 mice of R’’’ strain.
The anti-inflammatory activity of the compounds synthesized was studied with the Carragenin-Induced Paw Edema acute inflammation test using an aqueous carrageenin solution (2%, 0,05 mL), [14] which was injected intradermally in the footpad of the right hind limb muscle (mice R’’’ groups of 6–10 animals), whereas the left end serves as a reference. In the experimental procedure both sex male mice were used, excluding pregnant. Animals were fasted during the time of the experiment. The tested compounds (0.01 mmol/kg body weight), were suspended in water, with few drops of Tween 80 and ground in a mortar before use and were given intraperitoneally simultaneously with the carrageenin injection.

soybean lipoxygenase = target: T1, soybean lipoxygenase (Glycine max, UniProt P08170); experiment: Soybean lipoxygenase inhibition in vitro; type: biochemical; conditions: 0.1 mM sodium linoleate, 234 nm
T1 sequence (P08170 1-839): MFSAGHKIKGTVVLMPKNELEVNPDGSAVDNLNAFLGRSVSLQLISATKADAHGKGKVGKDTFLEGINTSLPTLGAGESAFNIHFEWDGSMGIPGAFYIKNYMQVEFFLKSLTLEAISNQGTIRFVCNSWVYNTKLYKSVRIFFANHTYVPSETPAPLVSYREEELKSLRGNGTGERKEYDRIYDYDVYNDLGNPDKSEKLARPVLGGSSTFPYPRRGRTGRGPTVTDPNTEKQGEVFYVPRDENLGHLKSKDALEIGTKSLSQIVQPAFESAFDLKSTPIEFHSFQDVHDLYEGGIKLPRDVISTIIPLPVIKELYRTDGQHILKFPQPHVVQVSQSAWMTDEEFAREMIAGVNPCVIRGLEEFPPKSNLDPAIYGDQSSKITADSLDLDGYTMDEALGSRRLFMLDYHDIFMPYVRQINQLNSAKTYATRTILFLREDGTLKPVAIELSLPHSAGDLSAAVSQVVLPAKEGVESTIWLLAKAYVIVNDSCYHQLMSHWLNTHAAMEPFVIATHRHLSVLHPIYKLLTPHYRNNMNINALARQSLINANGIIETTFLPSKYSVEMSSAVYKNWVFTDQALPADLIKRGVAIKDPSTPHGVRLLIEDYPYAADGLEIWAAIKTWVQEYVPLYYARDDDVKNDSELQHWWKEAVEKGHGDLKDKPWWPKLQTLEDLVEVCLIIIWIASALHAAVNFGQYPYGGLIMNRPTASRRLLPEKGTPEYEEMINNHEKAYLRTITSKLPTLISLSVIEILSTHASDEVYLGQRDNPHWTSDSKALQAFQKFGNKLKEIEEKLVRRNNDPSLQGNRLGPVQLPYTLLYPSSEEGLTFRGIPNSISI
Procedure: The compounds tested were dissolved in DMSO and preincubated for 4 min at 28 °C in the presence of 753 U/mL 5-soybean lipoxygenase (5-LOX). The enzyme reaction was triggered by addition of a final concentration of 0.1 mM sodium linoleate. The conversion of sodium linoleate 13-hydrouperoxylinoleic acid was measured at 234 nm. Absorbance was measured at time 0 and 3 min.

ovine COX-1 = target: T2, ovine COX-1 (Ovis aries, UniProt P05979); experiment: COX inhibitor screening assay in vitro, COX-1; type: biochemical; conditions: for inhibition at 200 µM: read-out: COX-1 (%) inhibition
T2 construct: purchased Cayman Chemical Co., Ann Arbor, MI, USA
T2 sequence (P05979 25-600): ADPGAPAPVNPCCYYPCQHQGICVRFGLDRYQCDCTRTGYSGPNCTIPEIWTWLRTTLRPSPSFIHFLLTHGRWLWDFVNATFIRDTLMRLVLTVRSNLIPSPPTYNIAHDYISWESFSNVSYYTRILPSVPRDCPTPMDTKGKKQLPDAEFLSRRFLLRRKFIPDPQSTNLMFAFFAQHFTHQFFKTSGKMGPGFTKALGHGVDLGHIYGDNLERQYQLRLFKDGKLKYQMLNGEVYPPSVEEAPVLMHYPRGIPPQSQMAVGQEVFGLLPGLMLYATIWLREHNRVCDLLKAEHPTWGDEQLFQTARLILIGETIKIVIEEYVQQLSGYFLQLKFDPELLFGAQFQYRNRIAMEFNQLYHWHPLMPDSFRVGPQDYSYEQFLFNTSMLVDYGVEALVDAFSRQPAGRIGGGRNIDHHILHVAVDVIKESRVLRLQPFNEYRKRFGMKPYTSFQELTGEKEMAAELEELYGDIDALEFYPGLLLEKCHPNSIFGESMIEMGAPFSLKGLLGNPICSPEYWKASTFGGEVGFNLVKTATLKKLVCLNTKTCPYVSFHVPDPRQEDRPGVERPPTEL
Procedure: (§1) The COX-1 and COX-2 activities of the compounds were measured using ovine COX-1 and human recombinant COX-2 enzymes included in the “COX I inhibitor Screening Assay” kit provided by Cayman (Cayman Chemical Co., Ann Arbor, MI, USA). The assay directly measures PGF2 a produced by SnCl2 reduction of COX-derived PGH2. The prostanoid production was quantified via enzyme immunoassay using a broadly specific antibody that binds to all the major prostaglandin compounds. […]

human recombinant COX-2 = target: T3, human recombinant COX-2 (Homo sapiens, UniProt P35354); experiment: COX inhibitor screening assay in vitro, COX-2; type: biochemical; conditions: for inhibition at 200 µM: read-out: COX-2 (%) inhibition
T3 construct: purchased Cayman Chemical Co., Ann Arbor, MI, USA
T3 sequence (P35354 18-604): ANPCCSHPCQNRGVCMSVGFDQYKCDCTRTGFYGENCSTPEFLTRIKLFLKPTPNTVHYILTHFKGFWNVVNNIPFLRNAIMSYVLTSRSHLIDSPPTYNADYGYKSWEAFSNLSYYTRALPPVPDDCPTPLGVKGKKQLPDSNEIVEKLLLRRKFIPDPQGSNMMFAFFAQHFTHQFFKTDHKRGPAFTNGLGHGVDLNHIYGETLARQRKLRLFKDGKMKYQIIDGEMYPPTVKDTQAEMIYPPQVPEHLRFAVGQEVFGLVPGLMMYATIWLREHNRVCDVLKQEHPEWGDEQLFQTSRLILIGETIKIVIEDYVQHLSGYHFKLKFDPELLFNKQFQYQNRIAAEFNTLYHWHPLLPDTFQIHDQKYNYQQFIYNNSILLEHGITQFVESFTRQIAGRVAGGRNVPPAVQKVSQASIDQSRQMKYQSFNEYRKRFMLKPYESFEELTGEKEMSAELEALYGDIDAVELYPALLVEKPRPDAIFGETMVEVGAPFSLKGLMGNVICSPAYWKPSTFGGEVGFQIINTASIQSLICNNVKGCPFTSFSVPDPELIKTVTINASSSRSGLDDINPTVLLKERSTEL
Procedure: as §1

[2] = at 200 μM, 0.1 μM arachidonic acid

LOX (%) inhibition (soybean lipoxygenase) [%] | inhibition at 200 µM (ovine COX-1; [2]) [%] | inhibition at 200 µM (human recombinant COX-2; [2]) [%] | Compound | inhibition in vivo at 10 µmol/kg [1] [%] | also measured
 |  |  | O=c1/c(=C/c2ccccc2)sc2nc(C34CC5CC(CC(C5)C3)C4)nn12 [Compound 1] | 40 to 49 | 
5.82 | 18 | 64 | O=c1/c(=C/c2cccc(O)c2)sc2nc(C34CC5CC(CC(C5)C3)C4)nn12 [Compound 2] | 36 | IC50 (human recombinant COX-2): > 50 µM
28.58 | 93 | 25 | O=c1/c(=C/c2ccc(O)cc2)sc2nc(C34CC5CC(CC(C5)C3)C4)nn12 [Compound 3] | 37 | COX-1 IC50 fold lower than that of naproxen (ovine COX-1): 30 fold; IC50 (ovine COX-1): 1.28 µM
 |  |  | O=c1/c(=C/c2ccc(O)cc2O)sc2nc(C34CC5CC(CC(C5)C3)C4)nn12 [Compound 4] | 40 to 49 | 
 |  |  | COc1cccc(/C=c2\sc3nc(C45CC6CC(CC(C6)C4)C5)nn3c2=O)c1O [Compound 5] | 51 to 67 | increased anti-inflammatory activity compared to indomethacin [1]: 23%
6.67 | 26.2 | 66 | COc1cc(/C=c2\sc3nc(C45CC6CC(CC(C6)C4)C5)nn3c2=O)ccc1O [Compound 6] | 40 to 49 | IC50 (human recombinant COX-2): > 50 µM
16.13 | 22 | 25 | COc1cc(/C=c2\sc3nc(C45CC6CC(CC(C6)C4)C5)nn3c2=O)cc(OC)c1O [Compound 7] | 36 | 
5.72 | 60.5 | 0 | COc1ccc(/C=c2\sc3nc(C45CC6CC(CC(C6)C4)C5)nn3c2=O)cc1 [Compound 8] | 51 to 67 | IC50 (ovine COX-1): 41.9 µM; increased anti-inflammatory activity compared to indomethacin [1]: 32%; COX-2 (%) inhibition (human recombinant COX-2; [2]): completely inactive
 |  |  | COc1ccc(/C=c2\sc3nc(C45CC6CC(CC(C6)C4)C5)nn3c2=O)cc1OC [Compound 9] | 40 to 49 | 
 |  |  | COc1cc(/C=c2\sc3nc(C45CC6CC(CC(C6)C4)C5)nn3c2=O)cc(OC)c1OC [Compound 10] | 40 to 49 | 
 |  |  | CN(C)c1ccc(/C=c2\sc3nc(C45CC6CC(CC(C6)C4)C5)nn3c2=O)cc1 [Compound 11] | 51 to 67 | 
 |  |  | O=c1/c(=C/c2ccccc2[N+](=O)[O-])sc2nc(C34CC5CC(CC(C5)C3)C4)nn12 [Compound 12] | 40 to 49 | 
 |  |  | O=c1/c(=C/c2cccc([N+](=O)[O-])c2)sc2nc(C34CC5CC(CC(C5)C3)C4)nn12 [Compound 13] | 15 | 
 |  |  | O=c1/c(=C/c2ccc([N+](=O)[O-])cc2)sc2nc(C34CC5CC(CC(C5)C3)C4)nn12 [Compound 14] | 40 to 49 | 
27.15 | 36 | 23 | O=c1/c(=C/c2cccc(F)c2)sc2nc(C34CC5CC(CC(C5)C3)C4)nn12 [Compound 15] | 51 to 67 | 
16.13 | 19 | 0 | O=c1/c(=C/c2ccc(F)cc2)sc2nc(C34CC5CC(CC(C5)C3)C4)nn12 [Compound 16] | 51 to 67 | 
17.15 | 16 | 0 | O=c1/c(=C/c2ccccc2Br)sc2nc(C34CC5CC(CC(C5)C3)C4)nn12 [Compound 17] | 51 to 67 | 
31.43 | 0 | 37 | O=c1/c(=C/c2cccc(Br)c2)sc2nc(C34CC5CC(CC(C5)C3)C4)nn12 [Compound 18] | 51 to 67 | 
8.07 | 16 | 36 | O=c1/c(=C/c2ccc(Br)cc2)sc2nc(C34CC5CC(CC(C5)C3)C4)nn12 [Compound 19] | 51 to 67 | 
 |  |  | O=c1/c(=C/c2ccccc2Cl)sc2nc(C34CC5CC(CC(C5)C3)C4)nn12 [Compound 20] | 40 to 49 | 
 |  |  | O=c1/c(=C/c2cccc(Cl)c2)sc2nc(C34CC5CC(CC(C5)C3)C4)nn12 [Compound 21] | 40 to 49 | 
 |  |  | O=c1/c(=C/c2ccc(Cl)cc2)sc2nc(C34CC5CC(CC(C5)C3)C4)nn12 [Compound 22] | 51 to 67 | 
11.43 | 46 | 20 | O=c1/c(=C/c2cccc(Cl)c2Cl)sc2nc(C34CC5CC(CC(C5)C3)C4)nn12 [Compound 23] | 37 | 
 |  |  | O=c1/c(=C/c2ccc(Cl)cc2Cl)sc2nc(C34CC5CC(CC(C5)C3)C4)nn12 [Compound 24] | 37 | 
 |  |  | O=c1/c(=C/c2c(Cl)cccc2Cl)sc2nc(C34CC5CC(CC(C5)C3)C4)nn12 [Compound 25] | 32 | 
 |  |  | COc1ccc2cc([C@H](C)C(=O)O)ccc2c1 [Naproxen, reference compound] |  | inhibition at 200 µM (ovine COX-1): 60%; inhibition at 200 µM (human recombinant COX-2): 65%
